Measurements: patent US20070293459A1, “Method for Inhibiting Cellular Na+-K+ ATPase Activity” (JASON LIFE TECH INC. LTD., priority 2006, published 2007)

Assays:
Na^+—K^+ ATPase [1] = experiment: Na+-K+ ATPase activity of rat brain cortex plasma membrane (Pi liberated from ATP hydrolysis); format: biochemical; conditions: for Na+-K+ ATPase activity (free Pi), MLB compared with ouabain: FIG. 2, various MLB or ouabain concentrations
Excerpt: (§1) First, Male Sprague-Dawley (NarII: SD) rats (3-month-old) were purchased from National Laboratory Animal Center (Nankang, Taipei) and raised under specific pathogen-free conditions. Animals were provided with rat chow (Rodent Laboratory Chow 5001, Purina, Mo.) and tap water throughout the studies. The rats received humane care in accordance with the guidelines of a guidebook for the care and use of laboratory animals. The animals were sacrificed by decapitation, and the brain and heart organs of the rats were removed immediately after complete exsanguination.
Next, the plasma membrane was isolated from the rat brain and heart at 4° C. The brain and heart homogenate were prepared respectively with homogenized plasma membrane in 10-20 volumes of […] sucrose solution containing 5.0 mM 4-(2-hydroxyethyl)-1-piperazineethanesulfonic acid (HEPES) and 1.0 mM EDTA, pH7.5. Then, the brain or heart homogenate was centrifuged at 1000×g for 10 min, and kept the resultant supernatant for further centrifuge at 17000×g for 30 min to obtain a crude plasma membrane fraction.
Then, the fraction was washed and suspended twice in 0.32 M sucrose HEPES-buffer, which was subjected to a discontinuous sucrose density gradient consisting of successive layers of […], and centrifuged at 63000×g for 1 hour. The plasma membrane was collected at the interface between […] sucrose to be further suspended in 0.32 M sucrose solution for enzyme assays within 2 hours.
Na^+—K^+ ATPase activity was determined by measuring the amount of inorganic phosphate (Pi) liberated from ATP hydrolysis.
First, commercial Na^+—K^+ ATPase from porcine cerebral cortex (Sigma, 0.3 units/mg) or a purified plasma membrane fraction incorporated into a reaction mixture of 1 ml containing 3 mM ATP, 5 mM MgCl2, 80 mM NaCl, 20 mM KCl, and 40 mM Tris-HCl, pH7.4, was prepared. The enzymatic reaction was terminated 15 min after Na^+—K^+ ATPase incorporation by adding 200 μl of 30% (WN) trichloroacetic acid.
After centrifugation at 6000 rpm for 15 min, supernatant of 500 μl measured the inorganic phosphate using spectrophotometric methods. Enzyme activity was expressed as μmol Pi liberated from ATP by 1 mg of Na^+—K^+ ATPase during 1 hour. Protein content was quantified using a Bradford protein assay kit (Sigma). For the observation of inhibitory effects on Na^+—K^+ ATPase activity, ouabain or MLB of various concentrations was incubated with commercial Na^+—K^+ ATPase or the purified plasma membrane fraction at 37° C. for 10 min prior to incorporation into the reaction mixture.

Na^+—K^+ ATPase [2] = experiment: Na+-K+ ATPase activity of rat myocardium (cardiac) cell membrane (Pi liberated from ATP hydrolysis); format: biochemical; conditions: FIG. 5, various MLB concentrations
Excerpt: as §1
Next, the plasma membrane was isolated from the rat brain and heart at 4° C. The brain and heart homogenate were prepared respectively with homogenized plasma membrane in 10-20 volumes of […] sucrose solution containing 5.0 mM 4-(2-hydroxyethyl)-1-piperazineethanesulfonic acid (HEPES) and 1.0 mM EDTA, pH7.5. […]
Na^+—K^+ ATPase activity was determined by measuring the amount of inorganic phosphate (Pi) liberated from ATP hydrolysis. […]
After centrifugation at 6000 rpm for 15 min, supernatant of 500 μl measured the inorganic phosphate using spectrophotometric methods. Enzyme activity was expressed as μmol Pi liberated from ATP by 1 mg of Na^+—K^+ ATPase during 1 hour. Protein content was quantified using a Bradford protein assay kit (Sigma). […]

[3] = tested on: cerebral hypoxia caused by sodium nitrite; experiment: Rat survival test after sodium nitrite (cerebral hypoxia); format: in vivo; conditions: FIG. 6, sodium nitrite 225 mg/kg
Procedure: Sodium nitrite will trigger the oxyhemoglobin converts into methemoglobin to cause the hypoxia and cell infract.
3-4 week old rats (about 20˜22 g) were randomly divided into three sample groups and one control group, and each group has 5 rats. […] After feeding for 7 days, one hour later of the final feeding, each rat was injected with sodium nitrite (225 mg/kg). Then count time on the spot to record the survival time of rats.

[4] = tested on: cerebral infarct after ischemia-reperfusion; experiment: Focal cerebral ischemia-reperfusion (CCA/MCA occlusion) infarct test in gerbils; format: in vivo, gerbil; conditions: for cell infarct volume vs control: FIG. 7; for cell infarct size vs control: FIG. 8

Compound | Na+-K+ ATPase activity (inorganic phosphate liberated from ATP hydrolysis) with increasing concentration (Na^+—K^+ ATPase [1]; FIG. 1, rat brain cortex, various MLB concentrations, 37° C. 10 min preincubation) | Na+-K+ ATPase activity (free Pi), MLB compared with ouabain (Na^+—K^+ ATPase [1]; rat brain cortex) | Na+-K+ ATPase activity (free Pi) of brain cortex cell membrane (Na^+—K^+ ATPase [1]; FIG. 4, rat brain cortex cell membrane, various MLB concentrations) | Na+-K+ ATPase activity (free Pi) of cardiac cell membrane (Na^+—K^+ ATPase [2]) | survival rate vs control after sodium nitrite ([3]; MLB 3 mg/Kg for 7 days) | survival rate vs control after sodium nitrite ([3]; MLB 9 mg/Kg for 7 days) | survival rate vs control after sodium nitrite ([3]; MLB 18 mg/Kg for 7 days) | cell infarct volume vs control ([4]; MLB 1.5 mg/Kg intraperitoneally 30 min before reperfusion) | cell infarct volume vs control ([4]; MLB 3 mg/Kg intraperitoneally 30 min before reperfusion) | cell infarct size vs control ([4]; MLB 0.3 mg/Kg forced oral fed 30 min after reperfusion) | cell infarct size vs control ([4]; MLB 3 mg/Kg forced oral fed 30 min after reperfusion)
O=C(/C=C/c1ccc(O)c2c1[C@H](C(=O)O[C@H](Cc1ccc(O)c(O)c1)C(=O)[O-])[C@@H](c1ccc(O)c(O)c1)O2)O[C@H](Cc1ccc(O)c(O)c1)C(=O)[O-].[Mg+2] [MLB, magnesium lithospermate B] | the measured free inorganic phosphate (Pi) decreases with increased MLB concentration | the inhibitory behavior of MLB is consistent with the ouabain | the MLB is able to inhibit the Na^+—K^+ ATPase activity of the cortex cell membrane | MLB is able to inhibit the Na^+—K^+ ATPase activity of cardiac cell membranes | significant (p<0.05) increase (two folds) | significant (p<0.05) different from the control group | significant (p<0.05) different from the control group | effective repression of cell infarct | significant (p<0.01) difference from the control group | effective repression of cell infarct | significant (p<0.01) difference from the control group
C[C@@H]1O[C@@H](O[C@H]2C[C@@H](O)[C@]3(CO)[C@H]4[C@H](O)C[C@]5(C)[C@@H](C6=CC(=O)OC6)CC[C@]5(O)[C@@H]4CC[C@]3(O)C2)[C@H](O)[C@H](O)[C@H]1O [ouabain, reference compound] | – | the amount of free inorganic phosphate (Pi) is dependent on the raised inhibitor (MLB or ouabain) dosage | – | – | – | – | – | – | – | – | –
